Bounds are passed on as bounds.

Assay [1] concerns the target GSPT1-GFP in HEK293T cells (Homo sapiens, UniProt P15170). As to the kind of experiment: Off-target degradation of GSPT1 by flow cytometry. It is filed as cell-based. Particulars: 24 h. Background: A flow cytometer gives signals particle by particle.
In assay [2] the test system is zinc-finger (ZF) degrons fused to GFP in U2OS cells. Kind of assay: Off-target degradation of ZF degrons by flow cytometry. In kind it is cell-based. The settings on record: 32 nM to 20 μM, 24 h.
For assay [3], the target named is BRD4(BD1)-GFP in HEK293T cells (Homo sapiens, UniProt O60885+Q96SW2). As to the kind of experiment: TR-FRET quantification of BRD4. Particulars: for DC50: read-out: DC50(BD1), HEK293T BRD4(BD1)-GFP reporter cells. A general note: TR-FRET usually uses a lanthanide donor and a delayed reading to cut background.
Assay [4] has as its target BRD4(BD2)-GFP in HEK293T cells (Homo sapiens, UniProt O60885+Q96SW2). As to the kind of experiment: TR-FRET quantification of BRD4. Particulars: for DC50: read-out: DC50(BD2), HEK293T BRD4(BD2)-GFP reporter cells, 4 h.
Assay [5] deals with endogenous BRD4 in MDA-MB-231 cells (Homo sapiens, UniProt O60885). In kind it is cell-based. The settings on record: 5 h (Fig. 3b).
A further assay has as its target His6-CRBN/DDB1 (Homo sapiens, UniProt Q96SW2). As to the kind of experiment: TR-FRET ligand displacement assay. The settings on record: for fold difference in KD between POM and POM-cN: monofunctional compounds, POM binds more tightly. It is filed as binding.
Another assay deals with BRD4 in HEK293T cells (Homo sapiens, UniProt O60885). Kind of assay: BRD4 degradation assay, western blot. The settings on record: 4 h, 100 nM–10 μM dose-response. It is filed as cell-based.
The target in assay [6] is His6-CRBN/DDB1–GST-BRD4(BD1) ternary complex (Homo sapiens, UniProt O60885+Q96SW2). Kind of assay: TR-FRET off-rate measurement of the ternary complex, BD1. In kind it is binding. The settings on record: BRD4 dissociation triggered by excess JQ1.
In another assay the target is BRD4 BD1 bromodomain. Particulars: read-out: KD for BD1; cited from earlier work.
The target in another assay is BRD4 BD2 bromodomain. Particulars: read-out: KD for BD2; cited from earlier work.
Assay [7] deals with His6-CRBN/DDB1 in the presence of GST-BRD4(BD1). Kind of assay: TR-FRET ternary complex / cooperativity assay with 1 μM BD1. In kind it is binding. Particulars: Alpha = KD,CRBN[binary]/KD,CRBN[ternary].
Assay [8] concerns His6-CRBN/DDB1 in the presence of GST-BRD4(BD2). As to the kind of experiment: TR-FRET ternary complex / cooperativity assay with 1 μM BD2. It is filed as binding. Particulars: Alpha = KD,CRBN[binary]/KD,CRBN[ternary].

With `Cc1sc2c(c1C)C(c1ccc(Cl)cc1)=N[C@@H](CC(=O)Nc1ccc(OCCOCCOCCOCCNc3cccc4c3C(=O)N(C3CCC(=O)NC3=O)C4=O)cc1)c1nnc(C)n1-2` (stereo partly drawn) [ARV-825], in assay [1], the “Dmax, off-target degradation of GSPT1” value is recorded as no more than 1%. Moreover, the “degradation of C2H2 zinc finger targets including IKZF3 and ZFP91, in words” value in assay [2] was “fast and rapid degradation”.

On to `Cc1sc2c(c1C)C(c1ccc(Cl)cc1)=N[C@@H](CC(=O)NCCCCCCCCC(=O)N[C@@H](C)C(=O)N[C@H]1CCC(=O)NC1=O)c1nnc(C)n1-2` [JQ1-AcQ], for which the DC50 in assay [3] (4 h) turned out to be 41 nM; in assay [4], 78 nM. Also, the “endogenous BRD4 degradation potency, in words” value in assay [5] is recorded as “one of the most potent BRD4 degraders”.

Consider `Cc1sc2c(c1C)C(c1ccc(Cl)cc1)=N[C@@H](CC(=O)NCCCCCCCCC(=O)N[C@@H](Cc1ccccc1)C(=O)N[C@H]1CC(=O)NC1=O)c1nnc(C)n1-2` [JQ1-FcN], for which the Kd at His6-CRBN/DDB1 (read-out: KD against His6-CRBN/DDB1 (binary), competition binding with Thal-FITC) was less than 100 nM. Besides, the “BRD4 degradation, western blot, in words” value on BRD4 in HEK293T cells is “efficient degradation of BRD4 at a concentration of 100 nM”.

With `Cc1sc2c(c1C)C(c1ccc(Cl)cc1)=N[C@@H](CC(=O)NCCCCCCCCC(=O)N[C@@H](Cc1ccc(O)cc1)C(=O)N[C@H]1CCC(=O)NC1=O)c1nnc(C)n1-2` [JQ1-YcQ], in assay [6], the “stability of the ternary complex with BRD4(BD1), in words” value is “most stable and long-lived complexes”. For the same compound, the “time to reach maximum level of degradation (Dmax), BRD4(BD1)” value in [3] (HEK293T BRD4(BD1)-GFP cells) is reported as 1.5 h. Moreover, in [3] (HEK293T reporter cells, 4 h, more potent on BD1), the “fold difference in DC50 between BD1 and BD2” value is given as 5–10 fold. In addition, the DC50 in assay [3] (4 h) worked out at 103 nM; in assay [4], 513 nM. Moreover, in assay [4] (HEK293T BRD4(BD2)-GFP cells), the “time to reach maximum level of degradation (Dmax), BRD4(BD2)” value is reported as 3 h.

Consider `Cc1sc2c(c1C)C(c1ccc(Cl)cc1)=N[C@@H](CC(=O)OC(C)(C)C)c1nnc(C)n1-2` [JQ1], for which the Kd was 50 nM on BRD4 BD1 bromodomain and 90 nM at BRD4 BD2 bromodomain.

On to `Nc1cccc2c1C(=O)N(C1CCC(=O)NC1=O)C2=O` (stereo not drawn) [POM, pomalidomide], for which, at His6-CRBN/DDB1, the “fold difference in KD between POM and POM-cN” value is given as ~ 500 fold.

Consider `Nc1cccc2c1C(=O)N(C1CC(=O)NC1=O)C2=O` (stereo not drawn) [POM-cN], for which, on His6-CRBN/DDB1, the “fold difference in KD between POM and POM-cN” value is given as ~ 500 fold.

Take `Cc1sc2c(c1C)C(c1ccc(Cl)cc1)=N[C@@H](CC(=O)NCCCCCCCCNC(=O)COc1cccc3c1C(=O)N(C1CCC(=O)NC1=O)C3=O)c1nnc(C)n1-2` (stereo partly drawn) [dBET6]: in [7], the “cooperativity with BRD4(BD1), in words” value is “negative cooperativity”. Moreover, the “Dmax, off-target degradation of GSPT1” value in assay [1] is no more than 9%. Further, the “Dmax, off-target degradation of ZF degrons” value in assay [2] was “≈ 6%”. Further, the “cooperativity with BRD4(BD2), in words” value in [8] was “negative cooperativity”.

Values taken from paper PMC12136240 (Cell chemical biology, 2024).
